Measurements from PubChem BioAssay AID2060904 (Molecular Pharmacology Branch, DTP, NCI, 2025).

Test system: 349418-098-R-PDC complex spheroid viability
Assay: Anticancer human tumor 349418-098-R-PDC patient-derived lung adenocarcinoma cell line growth inhibition [RAS]
Conditions: for viability, T/C: stronger effect = lower value
Procedure, shortened: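 Multi-cell-type spheroids: tumor cells plus HUVEC endothelial cells and mesenchymal stem cells. RAS-pathway inhibitors were combined with targeted agents, each dosed in half-log steps down from clinical Cmax, or from 10 microM when Cmax was unknown.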
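Note: spheroids exposed to compound for seven days before viability readout.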

CC(Nc1ccc2c(c1)OCCn1cc(N3C(=O)OCC3C(F)F)nc1-2)C(N)=O (stereo unspecified) + CCn1c(-c2cc(N3CCN(C)CC3)cnc2C(C)OC)c2c3cc(ccc31)-c1csc(n1)CC(NC(=O)C1CC1C)C(=O)N1CCCC(N1)C(=O)OCC(C)(C)C2
IC50 (curve of first compound, second compound 0.000949 µM): 127 nM | IC50 (curve of first compound, second compound 0.003 µM): 93.8 nM | IC50 (curve of first compound, second compound 0.00949 µM): 158 nM | IC50 (curve of first compound, second compound 0.03 µM): 91.6 nM | IC50 (curve of first compound, second compound 0.0949 µM): 145 nM | IC50 (curve of first compound, second compound 0.3 µM): 169 nM | viability, T/C (second compound 0.000949 µM, first compound 0.0316 µM): 75.9% | viability, T/C (second compound 0.000949 µM, first compound 0.1 µM): 56.3% | viability, T/C (second compound 0.000949 µM, first compound 0.316 µM): 25.9% | viability, T/C (second compound 0.000949 µM, first compound 1 µM): 19.5% | viability, T/C (second compound 0.000949 µM, first compound 3.16 µM): 25.7% | viability, T/C (second compound 0.000949 µM, first compound 10 µM): 14.8% | viability, T/C (second compound 0.003 µM, first compound 0.0316 µM): 78.6% | viability, T/C (second compound 0.003 µM, first compound 0.1 µM): 49.9% | viability, T/C (second compound 0.003 µM, first compound 0.316 µM): 25.1% | viability, T/C (second compound 0.003 µM, first compound 1 µM): 25.5% | viability, T/C (second compound 0.003 µM, first compound 3.16 µM): 15.4% | viability, T/C (second compound 0.003 µM, first compound 10 µM): 13.2% | viability, T/C (second compound 0.00949 µM, first compound 0.0316 µM): 85.8% | viability, T/C (second compound 0.00949 µM, first compound 0.1 µM): 57.5% | viability, T/C (second compound 0.00949 µM, first compound 0.316 µM): 39.6% | viability, T/C (second compound 0.00949 µM, first compound 1 µM): 21.4% | viability, T/C (second compound 0.00949 µM, first compound 3.16 µM): 20.3% | viability, T/C (second compound 0.00949 µM, first compound 10 µM): 14% | viability, T/C (second compound 0.03 µM, first compound 0.0316 µM): 76.4% | viability, T/C (second compound 0.03 µM, first compound 0.1 µM): 44.7% | viability, T/C (second compound 0.03 µM, first compound 0.316 µM): 36.8% | viability, T/C (second compound 0.03 µM, first compound 1 µM): 21.9% | viability, T/C (second compound 0.03 µM, first compound 3.16 µM): 16.7% | viability, T/C (second compound 0.03 µM, first compound 10 µM): 17.3% | viability, T/C (second compound 0.0949 µM, first compound 0.0316 µM): 77.8% | viability, T/C (second compound 0.0949 µM, first compound 0.1 µM): 59.2% | viability, T/C (second compound 0.0949 µM, first compound 0.316 µM): 30.7% | viability, T/C (second compound 0.0949 µM, first compound 1 µM): 21.5% | viability, T/C (second compound 0.0949 µM, first compound 3.16 µM): 25.5% | viability, T/C (second compound 0.0949 µM, first compound 10 µM): 15.9% | viability, T/C (second compound 0.3 µM, first compound 0.0316 µM): 89.2% | viability, T/C (second compound 0.3 µM, first compound 0.1 µM): 57.2% | viability, T/C (second compound 0.3 µM, first compound 0.316 µM): 42% | viability, T/C (second compound 0.3 µM, first compound 1 µM): 26.8% | viability, T/C (second compound 0.3 µM, first compound 3.16 µM): 26.6% | viability, T/C (second compound 0.3 µM, first compound 10 µM): 18.8%

CCn1c(-c2cc(N3CCN(C)CC3)cnc2C(C)OC)c2c3cc(ccc31)-c1csc(n1)CC(NC(=O)C1CC1C)C(=O)N1CCCC(N1)C(=O)OCC(C)(C)C2 (stereo unspecified)
viability, T/C (compound 0.000949 µM): 108% [middle of 8 runs] | viability, T/C (compound 0.003 µM): 103% [middle of 8 runs] | viability, T/C (compound 0.03 µM): 105% [middle of 8 runs] | viability, T/C (compound 0.0949 µM): 111% [middle of 8 runs] | IC50 (compound alone, run of 05/20/2024): > 300 nM

C=CC(=O)N1CCN(c2nc(OCC3CCCN3C)nc3c(F)c(-c4nc(N)cc(C)c4C(F)(F)F)c(Cl)cc23)C(C)C1 (stereo unspecified)
viability, T/C (compound 0.1 µM): 102% [middle of 12 runs] | viability, T/C (compound 0.316 µM): 95.8% [middle of 12 runs] | viability, T/C (compound 1 µM): 85.1% [middle of 12 runs] | IC50 (compound alone, run of 06/10/2024): > 1000 nM | IC50 (curve of compound): > 1000 nM

O=C(c1ccc(F)c(F)c1Nc1ccc(I)cc1F)N1CC(O)([C@@H]2CCCCN2)C1
viability, T/C (compound 0.00316 µM): 35.9% [middle of 4 runs] | viability, T/C (compound 0.01 µM): 35.3% [middle of 4 runs] | viability, T/C (compound 0.0316 µM): 33% [middle of 4 runs] | viability, T/C (compound 0.1 µM): 12.2% [middle of 4 runs] | viability, T/C (compound 0.316 µM): 7.62% [middle of 4 runs] | viability, T/C (compound 1 µM): 6.03% [middle of 4 runs] | IC50 (curve of compound): < 3.16 nM

CC(Nc1ccc2c(c1)OCCn1cc(N3C(=O)OCC3C(F)F)nc1-2)C(N)=O (stereo unspecified) + C#Cc1c(F)ccc2cc(O)cc(-c3ncc4c(N5CC6CCC(C5)N6)nc(OCC56CCCN5CC(F)C6)nc4c3F)c12
IC50 (curve of first compound, second compound 0.0316 µM): 90 nM | IC50 (curve of first compound, second compound 0.1 µM): 91.7 nM | IC50 (curve of first compound, second compound 0.316 µM): 70 nM | IC50 (curve of first compound, second compound 1 µM): 44.2 nM | IC50 (curve of first compound, second compound 3.16 µM): 71 nM | IC50 (curve of first compound, second compound 10 µM): < 31.6 nM | viability, T/C (second compound 0.0316 µM, first compound 0.0316 µM): 78.3% | viability, T/C (second compound 0.0316 µM, first compound 0.1 µM): 43.2% | viability, T/C (second compound 0.0316 µM, first compound 0.316 µM): 37.1% | viability, T/C (second compound 0.0316 µM, first compound 1 µM): 11.6% | viability, T/C (second compound 0.0316 µM, first compound 3.16 µM): 11.7% | viability, T/C (second compound 0.0316 µM, first compound 10 µM): 11.8% | viability, T/C (second compound 0.1 µM, first compound 0.0316 µM): 80.4% | viability, T/C (second compound 0.1 µM, first compound 0.1 µM): 39.4% | viability, T/C (second compound 0.1 µM, first compound 0.316 µM): 39.1% | viability, T/C (second compound 0.1 µM, first compound 1 µM): 19.9% | viability, T/C (second compound 0.1 µM, first compound 3.16 µM): 12.7% | viability, T/C (second compound 0.1 µM, first compound 10 µM): 11.2% | viability, T/C (second compound 0.316 µM, first compound 0.0316 µM): 71% | viability, T/C (second compound 0.316 µM, first compound 0.1 µM): 39.7% | viability, T/C (second compound 0.316 µM, first compound 0.316 µM): 26.8% | viability, T/C (second compound 0.316 µM, first compound 1 µM): 16.9% | viability, T/C (second compound 0.316 µM, first compound 3.16 µM): 15.3% | viability, T/C (second compound 0.316 µM, first compound 10 µM): 13.7% | viability, T/C (second compound 1 µM, first compound 0.0316 µM): 51.8% | viability, T/C (second compound 1 µM, first compound 0.1 µM): 45.9% | viability, T/C (second compound 1 µM, first compound 0.316 µM): 25.5% | viability, T/C (second compound 1 µM, first compound 1 µM): 12.4% | viability, T/C (second compound 1 µM, first compound 3.16 µM): 16.2% | viability, T/C (second compound 1 µM, first compound 10 µM): 10.6% | viability, T/C (second compound 3.16 µM, first compound 0.0316 µM): 63.5% | viability, T/C (second compound 3.16 µM, first compound 0.1 µM): 42.7% | viability, T/C (second compound 3.16 µM, first compound 0.316 µM): 30.5% | viability, T/C (second compound 3.16 µM, first compound 1 µM): 12.9% | viability, T/C (second compound 3.16 µM, first compound 3.16 µM): 12.8% | viability, T/C (second compound 3.16 µM, first compound 10 µM): 13.5% | viability, T/C (second compound 10 µM, first compound 0.0316 µM): 35.9% | viability, T/C (second compound 10 µM, first compound 0.1 µM): 28.3% | viability, T/C (second compound 10 µM, first compound 0.316 µM): 9.51% | viability, T/C (second compound 10 µM, first compound 1 µM): 4.69% | viability, T/C (second compound 10 µM, first compound 3.16 µM): 5.91% | viability, T/C (second compound 10 µM, first compound 10 µM): 2.82%

C[C@@H](NC(=O)c1ncnc(N)c1Cl)c1ncc(C(=O)Nc2cc(C(F)(F)F)c(Cl)cn2)s1
viability, T/C (compound 0.1 µM): 109% [middle of 4 runs] | viability, T/C (compound 0.316 µM): 91.3% [middle of 4 runs] | viability, T/C (compound 1 µM): 64.9% [middle of 4 runs] | viability, T/C (compound 10 µM): 32% [middle of 4 runs] | IC50 (curve of compound): 2.13 µM [middle of 4 runs]

CCC(CC)c1cc(NC2CCC(N)C2)n2nccc2n1 (stereo unspecified)
viability, T/C (compound 0.0316 µM): 101% [middle of 4 runs] | viability, T/C (compound 1 µM): 41.9% [middle of 4 runs] | viability, T/C (compound 3.16 µM): 2.95% [middle of 4 runs] | viability, T/C (compound 10 µM): 2.61% [middle of 4 runs] | IC50 (curve of compound): 778 nM [middle of 4 runs]
